This note sets out measurements from patent publication US7662832B2, “Pyrrolo[2,3-c]pyridine derivatives and processes for the preparation thereof” (priority 2004, dated 2010).

pIC50: −log10 of the molar value. Where a name gives a salt, the structure may show the parent alone.

This assay deals with Proton Pump (H^+/K^+-ATPase) (Sus scrofa, UniProt P19156). Description: Inhibitory effects on proton pump (H^+/K^+-ATPase) activity. Type of assay: biochemical. The settings on record: hog gastric vesicles; K^+ stimulated H^+/K^+-ATPase activity; 30 minutes at 37° C.
Chain of Proton Pump (H^+/K^+-ATPase) (P19156 2-1034 limits assumed): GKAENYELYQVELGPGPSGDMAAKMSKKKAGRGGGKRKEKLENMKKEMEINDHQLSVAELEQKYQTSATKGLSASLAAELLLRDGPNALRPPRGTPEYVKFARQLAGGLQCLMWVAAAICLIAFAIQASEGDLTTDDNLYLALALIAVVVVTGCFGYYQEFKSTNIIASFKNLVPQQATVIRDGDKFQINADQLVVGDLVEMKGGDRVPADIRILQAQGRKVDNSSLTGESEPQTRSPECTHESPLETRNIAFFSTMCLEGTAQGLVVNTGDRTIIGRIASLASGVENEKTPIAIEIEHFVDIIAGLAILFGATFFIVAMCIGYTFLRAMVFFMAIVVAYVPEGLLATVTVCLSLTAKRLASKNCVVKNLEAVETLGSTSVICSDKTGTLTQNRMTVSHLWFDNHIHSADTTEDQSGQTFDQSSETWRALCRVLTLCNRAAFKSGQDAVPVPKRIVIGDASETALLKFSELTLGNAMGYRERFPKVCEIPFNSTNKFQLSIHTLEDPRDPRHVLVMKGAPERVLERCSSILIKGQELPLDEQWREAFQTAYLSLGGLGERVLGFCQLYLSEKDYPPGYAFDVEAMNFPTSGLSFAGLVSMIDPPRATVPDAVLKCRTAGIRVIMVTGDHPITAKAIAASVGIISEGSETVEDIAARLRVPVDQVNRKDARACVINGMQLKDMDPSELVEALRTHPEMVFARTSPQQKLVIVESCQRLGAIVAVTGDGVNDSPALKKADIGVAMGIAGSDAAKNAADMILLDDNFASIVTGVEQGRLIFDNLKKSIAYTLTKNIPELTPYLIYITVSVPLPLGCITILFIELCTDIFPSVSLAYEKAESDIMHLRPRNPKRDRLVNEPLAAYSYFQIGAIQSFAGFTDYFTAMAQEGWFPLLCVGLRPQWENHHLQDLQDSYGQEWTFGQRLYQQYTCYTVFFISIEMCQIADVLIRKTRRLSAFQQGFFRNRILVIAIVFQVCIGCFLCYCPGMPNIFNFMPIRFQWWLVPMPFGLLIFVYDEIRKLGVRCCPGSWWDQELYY
Chain of Proton Pump (H^+/K^+-ATPase) (P18434 whole entry partner): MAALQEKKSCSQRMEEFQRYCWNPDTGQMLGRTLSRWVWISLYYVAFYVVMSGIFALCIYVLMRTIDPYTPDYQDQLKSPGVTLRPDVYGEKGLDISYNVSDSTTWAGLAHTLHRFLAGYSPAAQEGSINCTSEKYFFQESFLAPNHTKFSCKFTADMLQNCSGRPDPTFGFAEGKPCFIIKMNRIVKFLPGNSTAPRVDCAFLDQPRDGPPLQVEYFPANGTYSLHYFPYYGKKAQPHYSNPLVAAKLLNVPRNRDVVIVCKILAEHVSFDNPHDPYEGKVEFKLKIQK
In the case of `Cc1c(C)n(Cc2cccc(F)c2)c2c(CNc3ccc(F)cc3)nccc12` [Example 91, N-[1-(3-fluorobenzyl)-2,3-dimethyl-1H-pyrrolo[2,3-c]pyridin-7-ylmethyl]-4-fluorophenylamine hydrochloride], the pIC50 is 6.68.

The compound `C=Cc1ccc(-c2nccc3c(C)c(C)n(CCOC)c23)cc1` [Example 247, 1-(2-methoxyethyl)-2,3-dimethyl-7-(4-vinylphenyl)-1H-pyrrolo[2,3-c]pyridine hydrochloride] gave a pIC50 of 7.05.

`Cc1ccccc1CNc1nccc2c(C)c(C)n(Cc3ccc(F)cc3)c12` [Example 219, 1-(4-fluorobenzyl)-2,3-dimethyl-7-(2-methylbenzylamino)-1H-pyrrolo[2,3-c]pyridine hydrochloride]: the pIC50 was 5.91. This pIC50 lies 1.14 log units lower than the previous one.

In the case of `C=Cc1ccc(-c2nccc3c(C)c(C)n(Cc4ccc(F)cc4)c23)cc1` [Example 258, 2,3-dimethyl-1-(4-fluorobenzyl)-7-(4-vinylphenyl)-1H-pyrrolo[2,3-c]pyridine hydrochloride], the pIC50 was 6.48.

Turning to `Cc1c(C)n(Cc2ccc(F)cc2)c2c(N(C)Cc3ccc(F)cc3)nccc12` [Example 155, 1-(4-fluorobenzyl)-7-[N-(4-fluorobenzyl)-N-methyl]amino-2,3-dimethyl-1H-pyrrolo[2,3-c]pyridine hydrochloride], the pIC50 is 6.40.

As to `C=CCn1c(C)c(C)c2cc(C(=O)O)nc(N3CCc4ccccc4C3)c21` [Example 732, 1-allyl-7-(3,4-dihydro-1H-isoquinolin-2-yl)-2,3-dimethyl-1H-pyrrolo[2,3-c]pyridin-5-carboxylic acid], the pIC50 is 7.66. Compared with the last compound, the pIC50 is 1.26 log units higher.

Turning to `COc1cccc(Cn2c(C)c(C)c3ccnc(COc4ccc(F)cc4)c32)c1` [Example 4, 7-(4-fluorophenoxymethyl)-1-(3-methoxybenzyl)-2,3-dimethyl-1H-pyrrolo[2,3-c]pyridine hydrochloride], the pIC50 is 6.82.

For `Cc1nc(Cn2c(C)c(C)c3ccnc(N4CCc5ccccc5C4C)c32)cs1` (stereo not shown) [Example 559, 2-[2,3-dimethyl-1-(2-methylthiazol-4-ylmethyl)-1H-pyrrolo[2,3-c]pyridin-7-yl]-1-methyl-1,2,3,4-tetrahydroisoquinoline hydrochloride], the negative logarithm of the IC50 (pIC50) is 6.80. This pIC50 and that of the compound before are within 0.2 log units of each other.

In the case of `C=Cc1ccc(-c2nccc3c(C)c(C)[nH]c23)cc1` [Example 242, 2,3-dimethyl-7-(4-vinylphenyl)-1H-pyrrolo[2,3-c]pyridine], the pIC50 is 7.00.

`CCC1c2ccccc2CCN1c1nccc2c(C)c(C)n(Cc3csc(C)n3)c12` (stereo not shown) [Example 586, 1-ethyl-2-[2,3-dimethyl-1-(2-methylthiazol-4-ylmethyl)-1H-pyrrolo[2,3-c]pyridin-7-yl]-1,2,3,4-tetrahydroisoquinoline hydrochloride] showed a pIC50 of 6.48.

`COCn1c(C)c(C)c2ccnc(N3CCc4ccccc4C3)c21` [Example 496, 1-methoxymethyl-7-(1,2,3,4-tetrahydroisoquinolin-2-yl)-2,3-dimethyl-1H-pyrrolo[2,3-c]pyridine hydrochloride] showed a pIC50 of 6.64.

Consider `Cc1cccc(Cn2c(C)c(C)c3ccnc(CN(C)c4ccc(F)cc4)c32)c1` [Example 126, N-[2,3-dimethyl-1-(3-methylbenzyl)-1H-pyrrolo[2,3-c]pyridin-7-ylmethyl]-N-(4-fluorophenyl)-methylamine hydrochloride], for which the pIC50 was 6.40. This pIC50 is 0.24 log units lower than that of the compound before.

`COc1ccc(Cn2c(C)c(C)c3ccnc(CCc4ccccc4)c32)cc1` [Example 445, 1-(4-methoxybenzyl)-2,3-dimethyl-7-phenethyl-1H-pyrrolo[2,3-c]pyridine hydrochloride]: the pIC50 was 6.34.

As for `Cc1c(C)n(Cc2cccc(Cl)c2)c2c(N3CCc4ccccc4C3)nc(C(=O)N3CCN(C)CC3)cc12` [Example 836, [1-(3-chlorobenzyl)-7-(3,4-dihydro-1H-isoquinolin-2-yl)-2,3-dimethyl-1H-pyrrolo[2,3-c]pyridin-5-yl]-(4-methylpiperazin-1-yl)-methanone hydrochloride], the pIC50 is 6.89.

As for `C=CCn1c(C)c(C)c2ccnc(N3CCc4ccccc4C3)c21` [Example 487, 1-allyl-7-(1,2,3,4-tetrahydroisoquinolin-2-yl)-2,3-dimethyl-1H-pyrrolo[2,3-c]pyridine methanesulfonate], the pIC50 is 8.40. This pIC50 lies 1.51 log units higher than the previous one.

Consider `CC(C)=CCn1c(C)c(C)c2cc(C(=O)N3CCN(C)CC3)nc(N3CCc4ccccc4C3)c21` [Example 834, [7-(3,4-dihydro-1H-isoquinolin-2-yl)-2,3-dimethyl-1-(3-methylbut-2-enyl)-1H-pyrrolo[2,3-c]pyridin-5-yl]-(4-methylpiperazin-1-yl)-methanone hydrochloride], for which the pIC50 was 7.43.

On to `C=CCn1c(C)c(C)c2ccnc(C=Cc3ccccc3)c21` [Example 416, 1-allyl-2,3-dimethyl-7-styryl-1H-pyrrolo[2,3-c]pyridine hydrochloride], for which the pIC50 is 6.92.

The compound `Cc1c(C)n(Cc2ccc(C(C)(C)C)cc2)c2c(N3CCc4ccccc4C3)nc(C(=O)N3CCN(C)CC3)cc12` [Example 835, [1-(4-tert-butylbenzyl)-7-(3,4-dihydro-1H-isoquinolin-2-yl)-2,3-dimethyl-1H-pyrrolo[2,3-c]pyridin-5-yl]-(4-methylpiperazin-1-yl)-methanone hydrochloride] gave a pIC50 of 6.87. This pIC50 and that of the compound before are within 0.2 log units of each other.

Compound `Cc1ccc(Cn2c(C)c(C)c3ccnc(NCc4ccc(F)cc4)c32)cc1` [Example 220, 7-(4-fluorobenzylamino)-2,3-dimethyl-1-(4-methylbenzyl)-1H-pyrrolo[2,3-c]pyridine hydrochloride] had a pIC50 of 6.37.

As for `COc1ccc(Cn2c(C)c(C)c3ccnc(N4CCc5cc(F)ccc5C4C)c32)cc1` (stereo not shown) [Example 566, 6-fluoro-2-[1-(4-methoxybenzyl)-2,3-dimethyl-1H-pyrrolo[2,3-c]pyridin-7-yl]-1-methyl-1,2,3,4-tetrahydroisoquinoline hydrochloride], the pIC50 is 6.52. This pIC50 and that of the compound before are within 0.2 log units of each other.

In turn, `Cc1ccc(Cn2c(C)c(C)c3ccnc(COc4ccc(C)cc4)c32)cc1` [Example 17, 2,3-dimethyl-1-(4-methylbenzyl)-7-(p-tolyloxymethyl)-1H-pyrrolo[2,3-c]pyridine hydrochloride] had a negative logarithm of the IC50 (pIC50) of 6.37. The pIC50 values of the last two compounds are within 0.2 log units of each other.

Take `COc1ccc(-c2nccc3c(C)c(C)n(Cc4ccccc4)c23)cc1` [Example 350, 1-benzyl-7-(4-methoxyphenyl)-2,3-dimethyl-1H-pyrrolo[2,3-c]pyridine hydrochloride]: the pIC50 is 6.68.

Compound `CSc1ccc(-c2nccc3c(C)c(C)n(Cc4cccc(F)c4)c23)cc1` [Example 272, 2,3-dimethyl-1-(3-fluorobenzyl)-7-(4-methylsulfanylphenyl)-1H-pyrrolo[2,3-c]pyridine hydrochloride] showed a pIC50 of 6.66.

In turn, `C=Cc1ccc(-c2nccc3c(C)c(C)n(Cc4cccc(OC)c4)c23)cc1` [Example 253, 2,3-dimethyl-1-(3-methoxybenzyl)-7-(4-vinylphenyl)-1H-pyrrolo[2,3-c]pyridine hydrochloride] had a pIC50 of 6.77.

`COc1ccc(Cn2c(C)c(C)c3ccnc(N(C)Cc4ccc(F)cc4)c32)cc1` [Example 156, 7-[N-(4-fluorobenzyl)-N-methyl]amino-1-(4-methoxybenzyl)-2,3-dimethyl-1H-pyrrolo[2,3-c]pyridine hydrochloride] had a pIC50 of 6.51.

In turn, `Cc1c(C)n(CC2CC2)c2c(-c3ccc4ccccc4c3)nccc12` [Example 403, 1-cyclopropylmethyl-2,3-dimethyl-7-(naphthalen-2-yl)-1H-pyrrolo[2,3-c]pyridine hydrochloride] gave a pIC50 of 7.15. Compared with the last compound, the pIC50 is 0.64 log units higher.

`CCCn1c(C)c(C)c2cc(C#N)nc(N3CCc4ccccc4C3)c21` [Example 697, 7-(3,4-dihydro-1H-isoquinolin-2-yl)-2,3-dimethyl-1-propyl-1H-pyrrolo[2,3-c]pyridin-5-carbonitrile] had a pIC50 of 5.49. This pIC50 is 1.66 log units lower than that of the compound before.

On to `COCCn1c(C)c(C)c2cc(C(=O)N3CCCCC3)nc(N3CCc4ccccc4C3)c21` [Example 792, [7-(3,4-dihydro-1H-isoquinolin-2-yl)-1-(2-methoxyethyl)-2,3-dimethyl-1H-pyrrolo[2,3-c]pyridin-5-yl]-(piperidin-1-yl)-methanone hydrochloride], for which the pIC50 was 7.23.

On to `Cc1[nH]c2c(N3CCc4ccccc4C3)nc(C(=O)N3CCOCC3)cc2c1C` [Example 776, [7-(3,4-dihydro-1H-isoquinolin-2-yl)-2,3-dimethyl-1H-pyrrolo[2,3-c]pyridin-5-yl]-(morpholin-4-yl)-methanone], for which the pIC50 was 7.07.

Turning to `C=CCn1c(C)c(C)c2cc(CN3CCN(C)CC3)nc(N3CCc4ccccc4C3)c21` [Example 879, 2-[1-allyl-2,3-dimethyl-5-(4-methylpiperazin-1-ylmethyl)-1H-pyrrolo[2,3-c]pyridin-7-yl]-1,2,3,4-tetrahydroisoquinoline hydrochloride], the negative logarithm of the IC50 (pIC50) is 7.30.

Take `C=CCCn1c(C)c(C)c2ccnc(N(C)Cc3ccc(F)cc3)c21` [Example 157, 1-(but-3-enyl)-7-[N-(4-fluorobenzyl)-N-methyl]amino-2,3-dimethyl-1H-pyrrolo[2,3-c]pyridine hydrochloride]: the pIC50 is 6.42.

In the case of `C#CCn1c(C)c(C)c2ccnc(N3CCc4ccccc4C3)c21` [Example 506, 1-(prop-2-ynyl)-7-(1,2,3,4-tetrahydroisoquinolin-2-yl)-2,3-dimethyl-1H-pyrrolo[2,3-c]pyridine hydrochloride], the pIC50 is 7.16.

The compound `COc1cccc(Cn2c(C)c(C)c3cc(C(=O)N4CCSCC4)nc(N4CCc5ccccc5C4)c32)c1` [Example 784, [7-(3,4-dihydro-1H-isoquinolin-2-yl)-1-(3-methoxybenzyl)-2,3-dimethyl-1H-pyrrolo[2,3-c]pyridin-5-yl]-(thiomorpholin-1-yl)-methanone hydrochloride] gave a pIC50 of 6.69.

Take `Cc1c(C)n(Cc2ccccc2)c2c(NCc3ccc(F)cc3)nc(C(=O)N3CCN(C)CC3)cc12` [Example 906, [1-benzyl-7-(4-fluorobenzylamino)-2,3-dimethyl-1H-pyrrolo[2,3-c]pyridin-5-yl]-(4-methylpiperazin-1-yl)-methanone hydrochloride]: the pIC50 is 7.51.

As usually defined, the pIC50 is −log10 of the IC50, conventionally taken in molar units. Low values mean a high IC50, high ones a low IC50.
